The values that follow come from patent US9980943B2, “Methods of treating muscular dystrophy” (BOARD OF REGENTS OF THE NEVADA SYSTEM OF HIGHER EDUCATION, …, priority 2013, dated 2018).

SMILES strings stand for the structures.

What all share (assay type): cell-based, mouse
The test system of assay [1] is α7 integrin (LacZ reporter in α7βgal+/− myoblasts). Description: Myoblast α7+/LacZ integrin FDG assay (Burkin assay in myoblasts, 96-well). The settings on record: 96-well; for Burkin Assay in Myoblasts, signal relative to DMSO: α7+/LacZ myoblasts; for Burkin Assay in Myoblasts, value relative to DMSO: SU9516 analogs, N=3-6.
Assay [2] relates to α7 integrin (LacZ reporter in α7+/LacZ myotubes). Description: Myotube α7 integrin FDG assay (Burkin assay in myotubes, 96-well). The note with it: for Burkin Assay in Myotubes, value relative to DMSO: SU9516 analogs, 96-well, N=3-6.
The test system of assay [3] is β-galactosidase in CMV-LacZ C2C12 myoblasts. The assay can be described thus: CMV-LacZ secondary screen in C2C12 myoblasts (β-Gal stabilizing assay). The note with it: for CMV-LACZ in Myoblasts (β-galactosidase activity relative to DMSO): CMV-LacZ C2C12 myoblasts; for CMV-LACZ in Myoblasts, value relative to DMSO: SU9516 analogs, C2C12 CMV-LacZ, N=2. A digest of the protocol: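 Dose-response runs at 0.5–40 μM (0.5, 1, 5, 10, 20, 40 μM; N=2 per point) used a clonal C2C12 line carrying CMV-LacZ. Cells were assayed as myoblasts or as differentiated myotubes, and β-galactosidase levels were read with the FDG fluorogenic substrate.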

The subject of assay [4] is β-galactosidase in CMV-LacZ C2C12 myotubes. The assay can be described thus: CMV-LacZ secondary screen in C2C12 myotubes (β-Gal stabilizing assay). The settings on record: for CMV-LACZ in Myotubes, signal relative to DMSO: C2C12 CMV-LacZ myotubes, fold relative to DMSO; for CMV-LACZ in Myotubes, value relative to DMSO: SU9516 analogs, C2C12 CMV-LacZ, N=2. In outline: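 Stable CMV-LacZ C2C12 clone; six-point curve 0.5–40 μM; duplicates.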

For `Nc1cccc(/C=C/C(=O)O)c1` [MLS000777780-01], the “Burkin Assay in Myoblasts, signal relative to DMSO” value in assay [1] (0.5 uM) is 1.136; in assay [1] (1 uM), 1.056; in assay [1] (5 uM) it was 0.9439; in assay [1] (10 uM) it was 1.248; in assay [1] (20 uM), 0.9133; in assay [1] (40 uM), 0.7231. Also, the “Burkin Assay in Myotubes, α7 integrin LacZ reporter signal relative to DMSO” value in assay [2] (0.5 uM) is listed as 1.047; in assay [2] (1 uM) it was 0.9837; in assay [2] (5 uM), 0.8697; in assay [2] (10 uM) it was 0.9393; in assay [2] (20 uM), 0.8814; in assay [2] (40 uM), 0.7756. Besides, the “CMV-LACZ in Myoblasts (β-galactosidase activity relative to DMSO)” value in assay [3] (0.5 uM) amounted to 0.8779; in assay [3] (1 uM) it was 0.9063; in assay [3] (5 uM), 0.9893; in assay [3] (10 uM) it was 1.0126; in assay [3] (20 uM), 1.3393; in assay [3] (40 uM), 0.9463. Besides, the “CMV-LACZ in Myotubes, signal relative to DMSO” value is recorded as 0.8914 in assay [4] (0.5 uM); 0.8838 in assay [4] (1 uM); 1.0471 in assay [4] (5 uM); 0.8808 in assay [4] (10 uM); 0.9316 in assay [4] (20 uM); 1.0474 in assay [4] (40 uM).
Regarding `COc1ccc(Cl)cc1NC(=O)c1cc(-c2cc(C)ccc2O)n[nH]1` [MLS000779126-01], the “Burkin Assay in Myoblasts, signal relative to DMSO” value in assay [1] (0.5 uM) is given as 1.019; in assay [1] (1 uM) it was 1.115; in assay [1] (5 uM), 0.9229; in assay [1] (10 uM), 0.8196; in assay [1] (20 uM), 0.9124; in assay [1] (40 uM), 0.9389. Further, the “Burkin Assay in Myotubes, α7 integrin LacZ reporter signal relative to DMSO” value is 0.9836 in assay [2] (0.5 uM); 1.018 in assay [2] (1 uM); 0.9146 in assay [2] (5 uM); 0.8758 in assay [2] (10 uM); 0.8832 in assay [2] (20 uM); 0.7768 in assay [2] (40 uM). In addition, the “CMV-LACZ in Myoblasts (β-galactosidase activity relative to DMSO)” value in assay [3] (0.5 uM) turned out to be 0.9751; in assay [3] (1 uM), 0.9994; in assay [3] (5 uM), 0.9637; in assay [3] (10 uM), 0.7610; in assay [3] (20 uM), 0.9944; in assay [3] (40 uM), 0.7441. The “CMV-LACZ in Myotubes, signal relative to DMSO” value in assay [4] (0.5 uM) worked out at 0.9495; in assay [4] (1 uM), 1.2162; in assay [4] (5 uM) it was 1.0257; in assay [4] (10 uM) it was 1.0467; in assay [4] (20 uM), 0.9988; in assay [4] (40 uM), 1.1671.
On to `CCn1c(O)c(C(C#N)=C2N=c3ccccc3=N2)c2ccccc21` [MLS000564846-01], for which the “Burkin Assay in Myoblasts, value relative to DMSO” value in assay [1] (0.5 uM) was determined as 0.8359; in assay [1] (1 uM), 0.8438; in assay [1] (5 uM), 0.8067; in assay [1] (10 uM) it was 0.8704; in assay [1] (20 uM), 0.7406; in assay [1] (40 uM) it was 0.759. Also, the “Burkin Assay in Myotubes, value relative to DMSO” value is given as 0.8836 in assay [2] (0.5 uM); 0.9557 in assay [2] (1 uM); 1.002 in assay [2] (5 uM); 1.071 in assay [2] (10 uM); 0.7006 in assay [2] (20 uM); 0.7529 in assay [2] (40 uM). For the same compound, the “CMV-LACZ in Myoblasts, value relative to DMSO” value was found to be 0.9922 in assay [3] (0.5 uM); 0.8172 in assay [3] (1 uM); 0.9379 in assay [3] (5 uM); 1.3619 in assay [3] (10 uM); 1.2363 in assay [3] (20 uM); 1.0885 in assay [3] (40 uM). The “CMV-LACZ in Myotubes, value relative to DMSO” value is given as 0.8304 in assay [4] (0.5 uM); 1.0444 in assay [4] (1 uM); 1.1234 in assay [4] (5 uM); 0.8711 in assay [4] (10 uM); 1.2012 in assay [4] (20 uM); 1.0094 in assay [4] (40 uM).
In the case of `Cc1nc(Nc2ccccc2F)c2oc3ccccc3c2n1` [MLS001215123-01], the “Burkin Assay in Myoblasts, signal relative to DMSO” value in assay [1] (0.5 uM) was found to be 1.075; in assay [1] (1 uM), 0.9708; in assay [1] (5 uM) it was 1.1241; in assay [1] (10 uM) it was 1.155; in assay [1] (20 uM), 0.665; in assay [1] (40 uM), 0.5252. Also, the “Burkin Assay in Myotubes, α7 integrin LacZ reporter signal relative to DMSO” value is reported as 0.9466 in assay [2] (0.5 uM); 0.901 in assay [2] (1 uM); 1.049 in assay [2] (5 uM); 1.137 in assay [2] (10 uM); 0.6938 in assay [2] (20 uM); 0.816 in assay [2] (40 uM). For the same compound, the “CMV-LACZ in Myoblasts (β-galactosidase activity relative to DMSO)” value in assay [3] (0.5 uM) stood at 1.0530; in assay [3] (1 uM), 0.8837; in assay [3] (5 uM), 1.0888; in assay [3] (10 uM), 1.1943; in assay [3] (20 uM) it was 1.2639; in assay [3] (40 uM), 1.0098. The “CMV-LACZ in Myotubes, signal relative to DMSO” value in assay [4] (0.5 uM) is listed as 1.1657; in assay [4] (1 uM) it was 1.1457; in assay [4] (5 uM), 1.1153; in assay [4] (10 uM), 1.2929; in assay [4] (20 uM), 1.0710; in assay [4] (40 uM), 1.1030.
Turning to `COc1ccc2c(c1)/C(=C\c1cccc(/C=C3/C(=O)Nc4ccc(OC)cc43)n1)C(=O)N2` [MLS002702497-01], the “Burkin Assay in Myoblasts, value relative to DMSO” value in assay [1] (0.5 uM) turned out to be 0.7804; in assay [1] (1 uM), 0.5545; in assay [1] (5 uM), 0.175; in assay [1] (10 uM), 0.1888; in assay [1] (20 uM) it was 0.05588; in assay [1] (40 uM), 0.04886. For the same compound, the “Burkin Assay in Myotubes, value relative to DMSO” value in assay [2] (0.5 uM) stood at 0.8414; in assay [2] (1 uM), 0.749; in assay [2] (5 uM), 0.7692; in assay [2] (10 uM), 0.7814; in assay [2] (20 uM), 0.4567; in assay [2] (40 uM), 0.3839. Further, the “CMV-LACZ in Myoblasts, value relative to DMSO” value in assay [3] (0.5 uM) is given as 0.8643; in assay [3] (1 uM), 1.0213; in assay [3] (5 uM) it was 2.6344; in assay [3] (10 uM) it was 3.6076; in assay [3] (20 uM), 0.2593; in assay [3] (40 uM), 0.2779. The “CMV-LACZ in Myotubes, value relative to DMSO” value is recorded as 1.1181 in assay [4] (0.5 uM); 2.2829 in assay [4] (1 uM); 7.0726 in assay [4] (5 uM); 6.3598 in assay [4] (10 uM); 0.6520 in assay [4] (20 uM); 0.6550 in assay [4] (40 uM).
